Assay results reported in patent publication US20260285716A1, “METHODS TO REDUCE CONTAMINATION, BIOFILM, AND FOULING FROM WATER SYSTEMS AND SURFACES” (Aequor Inc., priority 2022, published 2026).

System: Pseudomonas aeruginosa
Assay type: cell-based

## butyl acid phosphate [BAP]
  MBEC (removal of 48-hr biofilm): ≤47 ppm
